pIC50: −log10 of the molar value.

Sequence of hTDO2 in human glioblastoma A172 cells (P48775 whole entry): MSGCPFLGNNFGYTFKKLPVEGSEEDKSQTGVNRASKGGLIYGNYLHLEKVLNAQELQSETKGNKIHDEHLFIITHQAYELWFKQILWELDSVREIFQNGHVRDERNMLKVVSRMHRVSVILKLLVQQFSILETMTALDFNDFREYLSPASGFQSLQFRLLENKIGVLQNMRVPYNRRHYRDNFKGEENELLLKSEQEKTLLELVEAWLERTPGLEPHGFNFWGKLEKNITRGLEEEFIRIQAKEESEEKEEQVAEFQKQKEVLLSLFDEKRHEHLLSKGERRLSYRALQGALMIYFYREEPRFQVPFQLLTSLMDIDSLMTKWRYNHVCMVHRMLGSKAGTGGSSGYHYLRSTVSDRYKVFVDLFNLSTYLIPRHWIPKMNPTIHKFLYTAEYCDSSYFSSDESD

The target in the assay is hTDO2 in human glioblastoma A172 cells (Homo sapiens (Human), UniProt P48775). The assay is described as follows: Cellular assay for TDO2 activity determination in A172 cells. The format is cell-based. To be noted: overnight incubation, kynurenine absorbance at 480 nm. As for the experimental part:
The compounds of formula I inhibit the activity of human TDO2 in cells that constitutively express TDO2, such as A172 cells. A172 is a cell line derived from human brain glioblastoma cells. The cells are available from the American Type Culture Collection (ATCC®) as CRL-1620™.
The assay (adapted from Pilotte L et al., Proc Natl Acad Sci USA, 2012, 109(7), 2497-502) was performed in 96-well flat bottom plates seeded with human glioblastoma A172 cells, naturally expressing hTDO2 (prepared as described in Tilman et al., Mol Cancer, 2007, 17(6), 80), at a concentration of 1.25×10^4 cells/well in a final volume of 200 μL. To determine TDO, the cells were incubated overnight at 37° C. at 5% CO2 in IMDM (Invitrogen) supplemented with 2% FBS and 2% penicillin/streptomycin in the presence of the compounds of the present invention, at different concentrations.
The plates were then centrifuged 5 min at 1000 rpm, and 100 μL of the supernatant were collected in a conical plate, 30 μL of TCA 30% were added and a further centrifuged at 3000×g for 10 minutes. 100 μL of the supernatant were collected in a flat bottomed plate and 100 μL of 2% (w/v) 4-(dimethylamino)-benzaldehyde in acetic acid and incubated for 5 min at room temperature. Kynurenine concentrations were determined by measuring the absorbance at 480 nm. A standard curve was made with pure kynurenine. The TDO activity was measured as described above using ten serial concentrations of the compounds of the present invention. Data were fitted using the Prism™ software (GraphPad Software, Inc.) using standard parameters.
The pIC50 is −log10 of the IC50, conventionally taken in molar units. `N[C@H]1CN(C(=O)CCNS(=O)(=O)c2ccc(-c3c[nH]c4cc(F)ccc34)cc2)C[C@H]1F` (single isomer, unassigned) [Example 172, (−)-N-(3-((3S.4R)-3-amino-4-fluoropyrrolidin-1-yl)-3-oxopropyl)-4-(6-fluoro-1H-indol-3-yl)benzenesulfonamide] showed a pIC50 of 6.02.
With `N[C@H]1CN(C(=O)CCNS(=O)(=O)c2ccc(-c3c[nH]c4cc(F)ccc34)cc2)C[C@H]1F` (single isomer, unassigned) [Example 173], the pIC50 is 6.04.
`C[S+]([O-])CCNS(=O)(=O)c1ccc(-c2c[nH]c3cc(F)ccc23)cc1` (single isomer, unassigned; (+)) [Example 160, (+)-4-(6-fluoro-1H-indol-3-yl)-N-(2-(methylsulfinyl)-ethyl) benzenesulfonamide] had a pIC50 of 6.77.
With `C[S+]([O-])CCNS(=O)(=O)c1ccc(-c2c[nH]c3cc(F)ccc23)cc1` (single isomer, unassigned; (-)) [Example 159, (−)-4-(6-fluoro-1H-indol-3-yl)-N-(2-(methylsulfinyl)-ethyl)benzenesulfonamide] the figure was 6.66.
Regarding `N[C@H]1CN(S(=O)(=O)c2ccc(-c3c[nH]c4cc(F)ccc34)cc2)C[C@H]1F` (stereo in doubt) [Example 81, (+)-(cis)-4-fluoro-1-{[4-(6-fluoro-1H-indol-3-yl)phenyl]-sulfonyl}pyrrolidin-3-amine], the pIC50 is 6.64.
`C[C@@H]1CN(S(=O)(=O)c2ccc(-c3c[nH]c4cc(F)ccc34)cc2)C[C@H](C)N1` [Example 11, 3-(4-(((cis)-3,5-dimethylpiperazin-1-yl)sulfonyl)phenyl)-6-fluoro-1H-indole] showed a negative-log IC50 (pIC50) of 6.49.
With `O=S(=O)(c1ccc(-c2c[nH]c3cc(F)ccc23)cc1)N1CCNC(CO)C1` (stereo not shown) [Example 12, (4-((4-(6-fluoro-1H-indol-3-yl)phenyl)sulfonyl)piperazin-2-yl)-methanol] the figure was 6.85.
With `O=S(=O)(c1ccc(-c2c[nH]c3cc(F)ccc23)cc1)N1CCNCC1CO` (stereo not shown) [Example 13, (1-((4-(6-fluoro-1H-indol-3-yl)phenyl)sulfonyl)piperazin-2-yl)methanol] the figure was 6.68; with `C[C@@H]1CN(S(=O)(=O)c2ccc(-c3c[nH]c4cc(F)ccc34)cc2)C[C@@H](C)N1` [Example 14, (3R,5R)-3-[4-(3,5-dimethyl-piperazine-1-sulfonyl)-phenyl]-6-fluoro-1H-indole], 6.72; with `C[C@H]1CN(S(=O)(=O)c2ccc(-c3c[nH]c4cc(F)ccc34)cc2)C[C@H](C)N1` [Example 15, 3-(4-(((3S,5S)-3,5-dimethylpiperazin-1-yl)sulfonyl)phenyl)-6-fluoro-1H-indole], 6.66.
In the case of `O=S(=O)(c1ccc(-c2c[nH]c3cc(F)ccc23)cc1)N1CCN[C@@H](CO)C1` [Example 17, (R)-(4-((4-(6-fluoro-1H-indol-3-yl)phenyl)sulfonyl)piperazin-2-yl)methanol] it was 6.70; in that of `CS(=O)(=O)N1CCN(S(=O)(=O)c2ccc(-c3c[nH]c4cc(F)ccc34)cc2)CC1` [Example 19, 6-fluoro-3-(4-((4-(methylsulfonyl)piperazin-1-yl)sulfonyl)phenyl)-1H-indole], 6.00.
As for `O=S(=O)(c1ccc(-c2c[nH]c3ccccc23)cc1)N1CCNCC1` [Example 20, 3-(4-(piperazin-1-ylsulfonyl)phenyl)-1H-indole], the pIC50 is 6.60.
Take `O=S(=O)(c1ccc(-c2c[nH]c3cc(F)ccc23)c(F)c1)N1CCNCC1` [Example 22, 6-fluoro-3-(2-fluoro-4-(piperazin-1-ylsulfonyl)-phenyl)-1H-indole]: the pIC50 is 6.22.
In the case of `O=S(=O)(c1cc(-c2c[nH]c3cc(F)ccc23)ccc1Cl)N1CCNCC1` [Example 23, 3-(4-chloro-3-(piperazin-1-ylsulfonyl)phenyl)-6-fluoro-1H-indole], the pIC50 is 6.20.
The compound `O=S(=O)(c1ccc(-c2c[nH]c3cc(F)ccc23)cc1C(F)(F)F)N1CCNCC1` [Example 24, 6-fluoro-3-(4-(piperazin-1-ylsulfonyl)-3-(trifluoromethyl)-phenyl)-1H-indole] gave a pIC50 of 6.29.
With `Cc1cc(S(=O)(=O)N2CCNCC2)ccc1-c1c[nH]c2cc(F)ccc12` [Example 25, 6-fluoro-3-(2-methyl-4-(piperazin-1-ylsulfonyl)-phenyl)-1H-indole] the figure was 5.85.
In turn, `CN(CCC(N)=O)S(=O)(=O)c1ccc(-c2c[nH]c3cc(F)ccc23)cc1` [Example 27, 3-(4-(6-fluoro-1H-indol-3-yl)-N-methylphenylsulfonamido)-propanamide] showed a pIC50 of 6.80.
In the case of `O=S(=O)(c1ccc(-c2c[nH]c3cc(F)ccc23)cc1F)N1CCNCC1` [Example 28, 6-fluoro-3-(3-fluoro-4-(piperazin-1-ylsulfonyl)-phenyl)-1H-indole] it was 6.66; in that of `COc1cc(-c2c[nH]c3cc(F)ccc23)ccc1S(=O)(=O)N1CCNCC1` [Example 29, 6-fluoro-3-(3-methoxy-4-(piperazin-1-ylsulfonyl)-phenyl)-1H-indole], 6.72.
With `Cc1cc(-c2c[nH]c3cc(F)ccc23)cc(S(=O)(=O)NCCN)c1` [Example 30, N-(2-aminoethyl)-3-(6-fluoro-1H-indol-3-yl)-5-methyl-benzenesulfonamide] the figure was 5.41; with `CS(=O)(=O)c1cccc(-c2c[nH]c3cc(F)ccc23)c1` [Example 31, 6-fluoro-3-(3-(methylsulfonyl)phenyl)-1H-indole], 6.13.
`COc1ccc(-c2c[nH]c3cc(F)ccc23)cc1S(=O)(=O)NCCN` [Example 33] gave a pIC50 of 6.04.
With `N#Cc1cc(S(=O)(=O)N2CCNCC2)ccc1-c1c[nH]c2cc(F)ccc12` [Example 37, 2-(6-fluoro-1H-indol-3-yl)-5-(piperazin-1-ylsulfonyl)benzonitrile] the figure was 5.43; with `NCCNS(=O)(=O)c1cc(Cl)cc(-c2c[nH]c3cc(F)ccc23)c1` [Example 38, N-(2-aminoethyl)-3-chloro-5-(6-fluoro-1H-indol-3-yl)-benzenesulfonamide], 5.60.
With `NCCNS(=O)(=O)c1cc(-c2c[nH]c3cc(F)ccc23)ccc1O` [Example 39, N-(2-aminoethyl)-5-(6-fluoro-1H-indol-3-yl)-2-hydroxy-benzenesulfonamide] the figure was 5.54; with `NC(=O)c1cc(-c2c[nH]c3cc(F)ccc23)ccc1S(=O)(=O)N1CCNCC1` [Example 41, 5-(6-fluoro-1H-indol-3-yl)-2-(piperazin-1-ylsulfonyl)benzamide], 6.00; with `CN1CCN(S(=O)(=O)c2ccc(-c3c[nH]c4cc(F)ccc34)cc2)CC1=O` [Example 42, 4-((4-(6-fluoro-1H-indol-3-yl)phenyl)sulfonyl)-1-methylpiperazin-2-one], 6.59.
With `NCCNS(=O)(=O)c1cc(-c2c[nH]c3cc(F)ccc23)ccc1F` [Example 43, N-(2-aminoethyl)-2-fluoro-5-(6-fluoro-1H-indol-3-yl)-benzenesulfonamide] the figure was 6.39.
Take `NCCNS(=O)(=O)c1cc(F)cc(-c2c[nH]c3cc(F)ccc23)c1` [Example 44, N-(2-aminoethyl)-3-fluoro-5-(6-fluoro-1H-indol-3-yl)-benzenesulfonamide]: the pIC50 was 6.37.
With `O=S(=O)(c1ccc(-c2c[nH]c3cc(F)ccc23)cc1Cl)N1CCNCC1` [Example 45, 3-(3-chloro-4-(piperazin-1-ylsulfonyl)phenyl)-6-fluoro-1H-indole] the figure was 6.64.
In the case of `O=S(=O)(NC1CCOCC1)c1ccc(-c2c[nH]c3cc(F)ccc23)cc1` [Example 46, 4-(6-fluoro-1H-indol-3-yl)-N-(tetrahydro-pyran-4-yl)-benzenesulfonamide] it was 6.66; in that of `CN(C)C(=O)n1cc(-c2ccc(S(=O)(=O)N3CCNCC3)cc2)c2ccc(F)cc21` [Example 47, 6-fluoro-N,N-dimethyl-3-(4-(piperazin-1-ylsulfonyl)phenyl)-1H-indole-1-carboxamide], 5.02.
`O=c1[nH]nc(CCNS(=O)(=O)c2ccc(-c3c[nH]c4cc(F)ccc34)cc2)o1` [Example 48, 4-(6-fluoro-1H-indol-3-yl)-N-(2-(5-oxo-4,5-dihydro-1,3,4-oxadiazol-2-yl)ethyl)benzenesulfonamide] showed a pIC50 of 6.36.
With `CN(C)C(=O)CCNS(=O)(=O)c1ccc(-c2c[nH]c3cc(F)ccc23)cc1` [Example 49, 3-(4-(6-fluoro-1H-indol-3-yl)phenylsulfonamido)-N,N-dimethylpropanamide] the figure was 6.68; with `CCC(=O)n1cc(-c2ccc(S(=O)(=O)N3CCNCC3)cc2)c2ccc(F)cc21` [Example 51, 1-(6-fluoro-3-(4-(piperazin-1-ylsulfonyl)phenyl)-1H-indol-1-yl)-propan-1-one], 6.20; with `CC(C)CC(=O)n1cc(-c2ccc(S(=O)(=O)N3CCNCC3)cc2)c2ccc(F)cc21` [Example 52, 1-(6-fluoro-3-(4-(piperazin-1-ylsulfonyl)phenyl)-1H-indol-1-yl)-3-methylbutan-1-one], 5.77.

Source of the values: US10544095B2 (Pfizer Inc., priority 2015, dated 2020).
